Measured values as given in patent US8420657B2 (Novartis AG, priority 2008, dated 2013).

Tests used:
GST-JAK2(808-1132) = target: T1, GST-JAK2(808-1132) (Homo sapiens, UniProt O60674); assay: JAK2 kinase assay (Caliper mobility shift, LabChip 3000); format: biochemical
T1 construct: GST-JAK2(808-1132); purchased Invitrogen (Carlsbad, USA) #4288
Outline: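 Recombinant GST-JAK2(808-1132) kinase domain with FITC-labelled JAK3tide peptide substrate and ATP; 60 min at 30 °C, EDTA stop. Substrate/product ratio read by microfluidic mobility shift; compounds at 8 final concentrations, 10 to 0.003 μM.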

[1] = tested on: JAK1/JAK2-dependent nuclear translocation of STAT1-GFP in HT1080 fibrosarcoma cells; assay: STAT1 nuclear translocation assay (Cellomics), IFN-γ stimulated HT1080 STAT1-GFP cells; format: cell-based; settings: Homo sapiens, HT-1080, STAT1 translocation pathway
Outline: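 HT1080 cells stably expressing STAT1-GFP, pre-treated 30 min with compound (10 μM–0.003 μM, 0.1% DMSO), then stimulated 2 h with 100 ng/ml IFN-γ, fixed and Hoechst-stained. Nuclear-cytoplasmic GFP differential imaged over ≥1000 cells/well, normalised to unstimulated and DMSO-stimulated wells for IC50.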

T1 sequence (O60674 808-1132): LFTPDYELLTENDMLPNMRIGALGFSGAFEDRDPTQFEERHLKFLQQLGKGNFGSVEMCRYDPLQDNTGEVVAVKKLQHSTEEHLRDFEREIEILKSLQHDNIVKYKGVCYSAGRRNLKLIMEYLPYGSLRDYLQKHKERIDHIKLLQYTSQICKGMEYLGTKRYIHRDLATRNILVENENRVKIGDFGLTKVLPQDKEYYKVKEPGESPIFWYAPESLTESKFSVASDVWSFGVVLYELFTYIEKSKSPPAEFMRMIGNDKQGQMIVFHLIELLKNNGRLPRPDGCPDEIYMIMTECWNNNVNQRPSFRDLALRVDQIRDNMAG

| SMILES | IC50 (GST-JAK2(808-1132)) | IC50 [1] |
| --- | --- | --- |
| CN1CCN(C(=O)c2c(F)cc(-n3ccc4cnc(Nc5ccc(CN6CCS(=O)(=O)CC6)cc5)nc43)cc2F)CC1 [Example 190, (4-{2-[4-(1,1-Dioxido-thiomorpholin-4-ylmethyl)-phenylamino]-pyrrolo[2,3-d]pyrimidin-7-yl}-2,6-difluoro-phenyl)-(4-methyl-piperazin-1-yl)-methanone] | 5.2 nM | 439 nM |
| CCN1CCN(Cc2ccc(Nc3ncc4ccn(-c5cc(F)c(C(=O)N6CCN(C)CC6)c(F)c5)c4n3)cc2)CC1 [Example 191, (4-{2-[4-(4-Ethyl-piperazin-1-ylmethyl)-phenylamino]-pyrrolo[2,3-d]pyrimidin-7-yl}-2,6-difluoro-phenyl)-(4-methyl-piperazin-1-yl)-methanone] | 28.5 nM | 3920 nM |
| CN1CCN(C(=O)c2c(F)cc(-n3ccc4cnc(Nc5ccc(CN6CCOCC6)cc5)nc43)cc2F)CC1 [Example 192, {2,6-Difluoro-4-[2-(4-morpholin-4-ylmethyl-phenylamino)-pyrrolo[2,3-d]pyrimidin-7-yl]-phenyl}-(4-methyl-piperazin-1-yl)-methanone] | 11.5 nM | 1490 nM |
| CC(C)Oc1ccc(Nc2ncc3ccn(-c4cc(F)c(CN5CCS(=O)(=O)CC5)c(F)c4)c3n2)cc1 [Example 194, {7-[4-(1,1-Dioxido-thiomorpholin-4-ylmethyl)-3,5-difluoro-phenyl]-7H-pyrrolo[2,3-d]pyrimidin-2-yl}-(4-isopropoxy-phenyl)-amine] | < 3 nM | 202 nM |
| O=C(c1ccc(Nc2ncc3ccn(-c4cc(F)c(CN5CCOCC5)c(F)c4)c3n2)cn1)N1CCOCC1 [Example 195, {5-[7-(3,5-Difluoro-4-morpholin-4-ylmethyl-phenyl)-7H-pyrrolo[2,3-d]pyrimidin-2-ylamino]-pyridin-2-yl}-morpholin-4-yl-methanone] | 5.3 nM | 352 nM |
| CCN1CCN(Cc2ccc(Nc3ncc4ccn(-c5cc(F)c(CN6CCOCC6)c(F)c5)c4n3)cc2)CC1 [Example 196, [7-(3,5-Difluoro-4-morpholin-4-ylmethyl-phenyl)-7H-pyrrolo[2,3-d]pyrimidin-2-yl]-[4-(4-ethyl-piperazin-1-ylmethyl)-phenyl]-amine] | < 3 nM | 176 nM |
| Fc1cc(-n2ccc3cnc(Nc4ccc(CN5CCOCC5)cc4)nc32)cc(F)c1CN1CCOCC1 [Example 197, [7-(3,5-Difluoro-4-morpholin-4-ylmethyl-phenyl)-7H-pyrrolo[2,3-d]pyrimidin-2-yl]-(4-morpholin-4-ylmethyl-phenyl)-amine] | < 3 nM | 90 nM |
| CN1CCN(Cc2cccc(Nc3ncc4ccn(-c5cc(F)c(CN6CCOCC6)c(F)c5)c4n3)c2)CC1 [Example 199, [7-(3,5-Difluoro-4-morpholin-4-ylmethyl-phenyl)-7H-pyrrolo[2,3-d]pyrimidin-2-yl]-[3-(4-methyl-piperazin-1-ylmethyl)-phenyl]-amine] | < 3 nM | 222 nM |
| CN1CCN(C(=O)c2ccc(Nc3ncc4ccn(-c5cc(F)c(CN6CCOCC6)c(F)c5)c4n3)cc2C(F)(F)F)CC1 [Example 201, {4-[7-(3. 5-Difluoro-4-morpholin-4-ylmethyl-phenyl)-7H-pyrrolo[2,3-d]pyrimidin-2-ylamino]-2-trifluoromethyl-phenyl}-(4-methyl-piperazin-1-yl)-methanone] | < 3 nM | 199 nM |
| O=C(c1cccc(Nc2ncc3ccn(-c4cc(F)c(CN5CCOCC5)c(F)c4)c3n2)c1)N1CCOCC1 [Example 202, {3-[7-(3 5-Difluoro-4-morpholin-4-ylmethyl-phenyl)-7H-pyrrolo[2,3-d]pyrimidin-2-ylamino]-phenyl}-morpholin-4-yl-methanone] | 4.5 nM | 198 nM |
| Cc1ccc(Nc2ncc3ccn(-c4ccc(CC(=O)N5CCN(CCO)CC5)cc4)c3n2)cc1C [Example 212, 2-{4-[2-(3,4-Dimethyl-phenylamino)-pyrrolo[2,3-d]pyrimidin-7-yl]-phenyl}-1-[4-(2-hydroxy-ethyl)-piperazin-1-yl]-ethanone] | < 3 nM | 106 nM |
| CN1CCN(c2ccc(Nc3ncc4ccn(-c5cc(F)c(C(=O)N6CCOCC6)c(F)c5)c4n3)cn2)CC1 [Example 221] | 4.7 nM | 360 nM |

Second part, the compound after the results:

| IC50 (GST-JAK2(808-1132)) | IC50 [1] | SMILES |
| --- | --- | --- |
| 4.8 nM | 442 nM | Fc1cc(-n2ccc3cnc(Nc4ccccc4)nc32)cc(F)c1CN1CCOCC1 [Example 208, [7-(3,5-Difluoro-4-morpholin-4-ylmethyl-phenyl)-7H-pyrrolo[2,3-d]pyrimidin-2-yl]-phenyl-amine] |
| 5.9 nM | 728 nM | Cc1cc(Nc2ncc3ccn(-c4cc(F)c(C(=O)N5CCOCC5)c(F)c4)c3n2)ccc1F [Example 213, {2,6-Difluoro-4-[2-(4-fluoro-3-methyl-phenylamino)-pyrrolo[2,3-d]pyrimidin-7-yl]-phenyl}-morpholin-4-yl-methanone] |
| 5.1 nM | 643 nM | O=C(c1c(F)cc(-n2ccc3cnc(Nc4ccccc4)nc32)cc1F)N1CCOCC1 [Example 214, [2,6-Difluoro-4-(2-phenylamino-pyrrolo[2,3-d]pyrimidin-7-yl)-phenyl]-morpholin-4-yl-methanone] |
| 420 nM | 10000 nM | O=C(c1c(F)cc(-n2ccc3cnc(Nc4ccccn4)nc32)cc1F)N1CCOCC1 [Example 215, {2,6-Difluoro-4-[2-(pyridin-2-ylamino)-pyrrolo[2,3-d]pyrimidin-7-yl]-phenyl}-morpholin-4-yl-methanone] |
| 3.3 nM | 579 nM | O=C(c1c(F)cc(-n2ccc3cnc(Nc4cccnc4)nc32)cc1F)N1CCOCC1 [Example 216, {2,6-Difluoro-4-[2-(pyridin-3-ylamino)-pyrrolo[2,3-d]pyrimidin-7-yl]-phenyl}-morpholin-4-yl-methanone] |
| 7.3 nM | 993 nM | O=C(c1c(F)cc(-n2ccc3cnc(Nc4ccncc4)nc32)cc1F)N1CCOCC1 [Example 217, {2,6-Difluoro-4-[2-(pyridin-4-ylamino)-pyrrolo[2,3-d]pyrimidin-7-yl]-phenyl}-morpholin-4-yl-methanone] |
| 1050 nM | 10000 nM | O=C(c1c(F)cc(-n2ccc3cnc(Nc4ccncn4)nc32)cc1F)N1CCOCC1 [Example 218, {2,6-Difluoro-4-[2-(pyrimidin-4-ylamino)-pyrrolo[2,3-d]pyrimidin-7-yl]-phenyl}-morpholin-4-yl-methanone] |
| 7.7 nM | 518 nM | Cc1ccc(Nc2ncc3ccn(-c4cc(F)c(C(=O)N5CCOCC5)c(F)c4)c3n2)cn1 [Example 219, {2,6-Difluoro-4-[2-(6-methyl-pyridin-3-ylamino)-pyrrolo[2,3-d]pyrimidin-7-yl]-phenyl}-morpholin-4-yl-methanone] |
| 11 nM | 880 nM | COc1ccc(Nc2ncc3ccn(-c4cc(F)c(C(=O)N5CCOCC5)c(F)c4)c3n2)cn1 [Example 220] |
| 9.2 nM | 455 nM | Cc1ccc(Nc2ncc3ccn(-c4ccc(C(=O)N5CCOCC5)c(F)c4)c3n2)cn1 [Example 223] |
| 8.5 nM | 1080 nM | O=C(c1ccc(-n2ccc3cnc(Nc4cccnc4)nc32)cc1F)N1CCOCC1 [Example 224, {2-Fluoro-4-[2-(pyridin-3-ylamino)-pyrrolo[2,3-d]pyrimidin-7-yl]-phenyl}-morpholin-4-yl-methanone] |
